Experimental data as given in patent publication US8329141B2, “Locoregional internal radionuclide ablation of abnormal tissues” (Board of Regents, The University of Texas System, priority 2004, dated 2012).
“Also recorded” adds a separate entry of the source.

Legend:
[1] = up to a 20 mg/kg systemic dose (Kalia; Mohanti et al.); cited from earlier work
[2] = tested on: rat breast cancer; conditions: systemic injection (Mortimer and Taylor; Moadel et al.); cited from earlier work
[3] = tested on: rat mammary cancer 13762F tumor cells; assay: In vivo tumor growth after intratumoral injection of radiopharmaceuticals (rat mammary cancer model); design: species or system Fischer 344 female rats; conditions: for tumor growth / tumor development: 0.6 mCi intratumoral on day 10 in 0.1-0.2 ml saline (pH 4.5-6), FIG. 2
Description: The radionuclides YCl3, ^111In—Cl, and ^201Tl—Cl were obtained from a local supplier of radioisotopes, Iso-Tex Diagnostics (Friendswood, Tex.). YCl3 obtained from the supplier was in an acidic preparation with a pH of 2-3, and was subsequently diluted in saline to a final pH of about 4-6 before injection. Initial activities of ^111In—Cl and YCl3 were about 200-500 mCi/ml, and dilution were made with preservative-free saline. YIMA was prepared by co-precipitation, as set forth in U.S. Ser. No. 10/724,027. Briefly, 500 μl of FeCl3 (1 mg Fe/ml) was added to 30 μl of ^90Y chloride (20-40 μCi/30 μl), and either 30 μl of NaOH (1.0 N) or 10 μl of NH4OH (20.0%) was added to the solution to reach a pH of about 7.0 to 9.0. Co-precipitated YIMA radiopharmaceutical macroaggregates were then separated from remaining soluble radionuclides by centrifuging the reactions from 1500 RPM to 3000 RPM×5 minutes, and filtered using a Millipore Nylone (size: 0.45 μm, diameter: 13 mm) to isolate the radiopharmaceutical macroaggregates.
The rat model of in vivo tumor growth was generated as follows. On day zero, 100,000 rat mammary cancer 13762F tumor cells were implanted in a volume of 0.15 ml into the right thigh muscle of Fischer 344 female rats weighing approximately 160 grams. […] YIMA was injected in a volume of 0.2 ml on days 3-7 after tumor implantation. Tumor sizes and body weights of the rats were monitored regularly (5 times a week) for several weeks, or until the tumors grew beyond 2.5 cm, at which time the rats were euthanized.

[4] = In vivo local sequestration at the injection site by serial scintigrams (intramuscular or intratumoral injection); design: species or system Fischer rats; conditions: for retention time with free iron / effect of free iron in the injectate on retention / local sequestration: admixture with FeCl3.6H2O; for retention time with free iron: intramuscular or intratumoral injection; for effect of free iron in the injectate on retention / local sequestration: 1 mg Fe in total injectate; for clearance after intramuscular injection: thigh muscle, after only 3 hours, negative control
Description: To further study the localization of unsealed radiopharmaceuticals after injection, in vivo imaging studies were carried out comparing ^111In DTPA (In-DTPA) (negative control) and Indium-111-Iron Macroaggregate (^111In-IMA) (positive control) to ^111In—Cl. ^111In emits gamma rays that can be detected using a gamma camera. ^111In-IMA was generated according to methods disclosed in U.S. Ser. No. 10/724,027, incorporated herein by reference. Each radiopharmaceutical was administered by intramuscular injection into the thigh muscle of Fischer rats which weighed approximately 200 grams. Two different doses of ^111In—Cl were administered to the rats, 0.4 and 0.8 mCi in 0.2 ml saline. Distribution of the ^111In—Cl was determined through serial scintigrams. […] In comparison, when ^111In-IMA was administered to rats, consistent retention (84%) of the ^111In-IMA was found 70 hours after administration (FIG. 8). Persistent intramuscular localization of ^111In—Cl was also found in rats for both dose levels of ^111In—Cl, with over 50% of the injected ^111In—Cl remaining in the injection site after three days.
To investigate whether the addition of free iron to radionuclides would increase the locoregional retention of various radionuclides, admixtures of ^67Ga-citrate, YCl3, or ^111In—Cl, were prepared with FeCl3.6H2O at 1-5 mg Fe/ml. Each radionuclide combination/admixture was administered either by intramuscular (IM) injection into the thigh muscle of the left leg (0.1-1.0 mCi) or by intratumoral (IT) injection into a tumor in the right leg (0.4-5.0 mCi) of Fischer rats. Distribution of the radionuclide was determined through serial scintigrams. Whole body images were acquired with a Siemens M-CAM camera using respective photo peaks of Ga-67, Tl-201 (for Y-90), or In-111, and 15-20% windows in photo energy. The typical imaging time was 0.5 to 5 minutes. A respective standard was present in the field of view (0.1-0.5 mCi), and used for image quantification by comparing images with the standard and normalizing the initial injection time as 100%. The Fe content in each combination/admixture was 1 mg in the total injectate.

[5] = cited from earlier work
[6] = intravenous; four days after injection (Kutzner et al.); cited from earlier work
[7] = tested on: CSF proteins; assay: Binding to CSF proteins (Centrifree filter separation); type: in vitro ADME, human (patients); conditions: 0.2, 0.5 or 1 μCi added to diluted CSF, 20 minutes; physiologic range, all concentrations tested
Description: To test the hypothesis that local sequestration of ^111In—Cl is due to protein binding, both ^111In—Cl and YCl3 were tested for binding to CSF and serum proteins. Serum proteins were obtained from residual baseline serum and CSF proteins were obtained from patients participating in other research protocols who had consented to blood sampling. To determine the level of ^111In—Cl protein binding, 0.2, 0.5, or 1 μCi of ^111In—Cl was added to diluted CSF (0.125 or 0.5) or diluted serum protein (0.125 and 0.25) and incubated for 20 minutes. To determine the level of YCl3 protein binding, 0.2, 0.5, or 1 μCi of YCl3 was added to diluted CSF (0.063 or 0.5) or diluted serum protein (0.063 and 0.375), and incubated for 20 minutes. After incubation, free radiopharmaceuticals were separated from protein bound ^111In—Cl or YCl3 using Amicon Centrifree Micropartition filters in a single centrifugation step at 3000 g for 15 minutes according to manufacturer's instructions (Amicon, Beverly, Mass.). The percent binding of YCl3 or ^111In—Cl to the CSF or serum protein was then calculated. As shown in FIG. 6 and FIG. 7 respectively, both YCl3 and ^111In—Cl bind avidly to CSF and serum protein within the physiologic range (a dilution factor between 0.2 and 0.6) at all concentrations tested. At room temperature, both YCl3 and ^111In—Cl have greater than 95% binding to serum proteins.

[8] = tested on: serum proteins; assay: Binding to serum proteins (Centrifree filter separation); type: in vitro ADME, human (patients); conditions: 0.2, 0.5 or 1 μCi added to diluted serum protein, 20 minutes; physiologic range, all concentrations tested
Description: To test the hypothesis that local sequestration of ^111In—Cl is due to protein binding, both ^111In—Cl and YCl3 were tested for binding to CSF and serum proteins. Serum proteins were obtained from residual baseline serum and CSF proteins were obtained from patients participating in other research protocols who had consented to blood sampling. To determine the level of ^111In—Cl protein binding, 0.2, 0.5, or 1 μCi of ^111In—Cl was added to diluted CSF (0.125 or 0.5) or diluted serum protein (0.125 and 0.25) and incubated for 20 minutes. To determine the level of YCl3 protein binding, 0.2, 0.5, or 1 μCi of YCl3 was added to diluted CSF (0.063 or 0.5) or diluted serum protein (0.063 and 0.375), and incubated for 20 minutes. After incubation, free radiopharmaceuticals were separated from protein bound ^111In—Cl or YCl3 using Amicon Centrifree Micropartition filters in a single centrifugation step at 3000 g for 15 minutes according to manufacturer's instructions (Amicon, Beverly, Mass.). The percent binding of YCl3 or ^111In—Cl to the CSF or serum protein was then calculated. As shown in FIG. 6 and FIG. 7 respectively, both YCl3 and ^111In—Cl bind avidly to CSF and serum protein within the physiologic range (a dilution factor between 0.2 and 0.6) at all concentrations tested. At room temperature, both YCl3 and ^111In—Cl have greater than 95% binding to serum proteins. […]

[9] = Biodistribution and projected human radiation dosimetry after intravenous or intramuscular injection; type: in vivo, female Fisher rats; conditions: for human dosimetry estimate, kidney / human dosimetry estimate, red marrow: from rat biodistribution
Description: To evaluate the radiation toxicity of YCl3 after intravenous or intramuscular injection, parallel experiments were performed to evaluate the biodistribution and projected human radiation dosimetry of both ^111In—Cl and YCl3. The experiments used three female Fisher rats (140-160 grams) for each set of injections. Each rat was injected intravenously, or was injected intramuscularly in the right thigh, with 0.05 mCi of YCl3 or ^111In—Cl (with no carrier added) in 0.1 ml saline (pH 5-6). The effect of initial exposure of the radiopharmaceuticals to interstitial fluid was estimated by serum protein binding experiments using Millipore Centrifree filters as set forth in Example 2. Organs including the right and left femur, as well as the right and left thigh muscles, were harvested from each rat 7 days after injection. Human dosimetry for each radiopharmaceutical was constructed using established anthropomorphic models.

[10] = tested on: human cancer cell lines; conditions: a number of human cancer cell lines; cited from earlier work
[11] = FIG. 4, in 0.5 ml saline, YCl3 0.5, 1.0, 2.0 mCi, ^111In—Cl 1.0, 4.0 mCi, FDG 1.0, 2.0, 3.0 mCi, ^67Ga—Fe 1.77 mCi

O=CC[C@@H](O)[C@H](O)[C@H](O)CO [2DG, 2-deoxy-D-glucose]
enhancement of the effects of a radiopharmaceutical [1]: effective in enhancing the effects of a radiopharmaceutical

OC[C@H]1OC(O)[C@H]([18F])[C@@H](O)[C@@H]1O (stereo partly drawn) [FDG, F-18-2-deoxy-2-fluoro-D-glucose, reference compound]
induction of apoptosis [2]: sufficient to induce apoptosis | tumor growth [3, 11]: YCl3 appeared to be the only radiopharmaceutical that significantly suppressed tumor growth

O=C([O-])CC(O)(CC(=O)[O-])C(=O)[O-].[67Ga+3] [^67Ga citrate, Gallium 67 citrate, reference compound]
retention time with free iron [4]: Increase in the retention time | retention in the injection site ([4]; intramuscular injection, without free iron): comparatively short time

[Cl][Ga]([Cl])[Cl] [^67Ga—Cl, Gallium 67 chloride]
retention time with free iron [4]: Increase in the retention time

[90Y] [^90Y, Yttrium-90]
radiation toxicity in red bone marrow ([5]; by ICRP-30): 15-18 cGy/mCi | red marrow dose ([5]; derived from distribution of Yttrium-86 citrate in human PET studies (Herzog et al.)): 4-6 cGy/mCi | injected amount present in the bones [6]: 50%-80%

[Cl][111In]([Cl])[Cl] [^111In—Cl, Indium-111 chloride]
binding to CSF [7]: bind avidly | binding to serum protein [8]: bind avidly | retention time with free iron [4]: Increase in the retention time | effect of free iron in the injectate on retention / local sequestration ([4]; intramuscular injection): does not appear to dramatically affect | injected radiopharmaceutical remaining in the injection site ([4]; intramuscular, 0.4 and 0.8 mCi in 0.2 ml saline (both dose levels), after three days): over 50% | effect of pH of the injectate on local sequestration ([4]; intramuscular, acidic solution (pH 3.0) vs basic solution (pH 8.0), FIG. 9): does not appear to dramatically affect | effect of free iron in the injectate on retention / local sequestration ([4]; intratumoral injection): does appear to increase | skeletal distribution ([9]; estimated from the left femur (opposite to the injection site)): about 16% | radiation uptake in the right thigh muscle ([9]; intramuscular injection in right thigh): high | radiation uptake in right femur versus contralateral organ ([9]; intramuscular injection in right thigh, decreasing over time to): 3 times higher | radiation uptake in right femur versus contralateral organ ([9]; intramuscular injection in right thigh, initial): 6 times higher | human dosimetry estimate, kidney ([9]; intramuscular): 1.13 cGy/mCi | human dosimetry estimate, red marrow ([9]; intramuscular): 0.55 cGy/mCi | organs with the highest uptake ([9]; intravenous injection, 0.05 mCi in 0.1 ml saline): spleen, liver, and kidney | human dosimetry estimate, kidney ([9]; intravenous): 10.4 cGy/mCi | human dosimetry estimate, red marrow ([9]; intravenous): 4.01 cGy/mCi | tumor growth / tumor development [3]: not suppressed; also recorded: not reduced; also recorded: did not suppress tumor development | tumor growth ([3]; FIG. 3, in 0.2-0.3 ml saline, YCl3 0.3, 0.6, 1.5 mCi, ^111In—Cl 0.6, 1.2, 2.4, 4.8 mCi, ^67Ga 0.6 mCi): YCl3 appeared to be the only radiopharmaceutical that significantly suppressed tumor growth | tumor growth [3, 11]: YCl3 appeared to be the only radiopharmaceutical that significantly suppressed tumor growth | tumor growth ([3]; FIG. 5, in 1.0 ml saline, ^111In—Cl 2.2 mCi, ^188Re EDTA 1.5 mCi with or without free iron): strong tumor suppression | change in tumor suppression with injection volume ([3]; injection volume increased from 0.2-0.3 ml and 0.5 ml to 1.0 ml, therapeutic dosage not increased): dramatic increase in tumor suppression

[O]=[188Re](=[O])(=[O])[O-] [^188Re perrhenate, reference compound]
clearance from the injection site ([4]; intratumoral injection, without free iron, FIG. 16): rapidly cleared | effect of free iron in the injectate on retention / local sequestration ([4]; intratumoral injection): did not slow down the clearance

[Cl][201Tl] [^201Tl—Cl, Thallium-201 chloride, reference compound]
effect of free iron in the injectate on retention / local sequestration ([4]; intratumoral injection): did not dramatically slow down clearance | tumor growth / tumor development [3]: not reduced

Rhodamine-123 [Rh-123]
toxicity to cancer cell lines [10]: selectively toxic

^111In DTPA [^111In-DTPA, reference compound]
clearance after intramuscular injection ([4]; intramuscular): rapidly cleared | clearance after intramuscular injection ([4]; intramuscular, listed as In-DTPA): rapid clearance
